Test [1] concerns the target Major prion protein (Homo sapiens, UniProt P04156). It is filed as functional, cell-based.
The nature of test [2]: cells.
For test [3], the target named is T1, Endoribonuclease toxin MazF (Escherichia coli K-12, UniProt P0AE70).
T1 sequence (P0AE70 whole entry): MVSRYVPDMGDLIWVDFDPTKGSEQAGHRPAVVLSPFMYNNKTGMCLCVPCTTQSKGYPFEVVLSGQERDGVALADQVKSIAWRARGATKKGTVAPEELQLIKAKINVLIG
Nature of the test: substrate-only fluorescence increase artefacts – biochemical, single-stranded RNase substrate, counter-screen for MazEF activator project, dose response (AID 588502). It counts as functional. In general terms: The purpose of a counterscreen is to sort out artefacts and off-target activity.

The target in test [4] is T1, Endoribonuclease toxin MazF. Nature of the test: activation of MazEF endoribonuclease cleavage – biochemical, fluorescence, single-stranded RNA substrate, uHTS hits, dose response (AID 588481). It counts as functional.
The target of test [5] is Peroxisome proliferator-activated receptor gamma/Nuclear receptor coactivator 1 (Homo sapiens, UniProt P37231). It is filed as functional.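 Further: agonist potency as compounds enhance coactivator SRC-1 recruitment to PPARgamma.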
In test [6] the target is Peroxisome proliferator-activated receptor gamma/Nuclear receptor coactivator 2 (Homo sapiens, UniProt P37231). It is filed as functional.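 Further: agonist potency for raising coactivator recruitment to the receptor.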
For test [7], the target named is Peroxisome proliferator-activated receptor gamma/Nuclear receptor coactivator 3 (Homo sapiens, UniProt P37231). It is filed as functional.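 Further: agonist potency for raising coactivator recruitment to the receptor.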
Test [8] has as its target Voltage-dependent T-type calcium channel subunit alpha-1H (Homo sapiens, UniProt O95180). It counts as functional.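 Further: channel activity triggered by adding a high calcium stimulation buffer.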
The nature of test [9]: NIH3T3 cell viability loss – ATP luminescence, mouse fibroblasts, counter-screen, dose response (AID 2010).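 Further: cells exposed to compound for about 90 hours before reading.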 It counts as functional, cell-based.
In test [10] the target is Beta-galactosidase (Escherichia coli, UniProt Q8VNN2). As to the kind of experiment: Dose response counterscreen for EBI2 assay utilizing the enzyme, b-galactosidase. It counts as functional.
Test [11] can be described thus: Trypanosoma cruzi growth suppression in host cells – NIH3T3 host cells, beta-gal luminescence, confirmation (AID 2044).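 Further: intracellular parasites grown in NIH/3T3 mouse fibroblasts as host cells; luminescent beta-galactosidase reporter signal from transgenic T. cruzi replicating inside host cells; inhibitors lower the luminescence signal.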 It counts as functional, cell-based.
Test [12] in a line: cells. It counts as functional, cell-based.
A short description of test [13]: cells. It counts as functional, cell-based. This is another data set of the same source.
In test [14] the test system is H9c2. As to the kind of experiment: cells. It counts as functional, cell-based. The note with it: Rattus norvegicus, H9c2, Myocardium.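 Further: confirmatory concentration-response retest of ultra-high-throughput screening hits for modulation of myocardial damage; cell death induced by hydrogen peroxide oxidative stress; compound pretreatment for 60 min then peroxide exposure for 2 h; potency is for protecting the cells against peroxide damage rather than for killing them.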
The target in test [15] is DNA dC->dU-editing enzyme APOBEC-3G (Homo sapiens, UniProt Q9HC16). As to the kind of experiment: Dose Response confirmation of small molecule APOBEC3G DNA Deaminase Inhibitors via a fluorescence-based single-stranded DNA deaminase assay. [Related pubchem assays (depositor defined):AID493012, AID493028]. It is filed as functional.
The nature of test [16]: A cytotoxicity screen of small molecule inhibitors of the PhoP region in Salmonella typhi identified in the primary screen. [Related pubchem assays: 1850, 1864, 1985 ]. It counts as functional.
A short description of test [17]: cells. It is filed as functional, cell-based. The source holds these as a separate data set.
Test [18] has as its target T2, CAAX prenyl protease 2 (Saccharomyces cerevisiae S288c, UniProt Q03530).
T2 sequence (Q03530 whole entry): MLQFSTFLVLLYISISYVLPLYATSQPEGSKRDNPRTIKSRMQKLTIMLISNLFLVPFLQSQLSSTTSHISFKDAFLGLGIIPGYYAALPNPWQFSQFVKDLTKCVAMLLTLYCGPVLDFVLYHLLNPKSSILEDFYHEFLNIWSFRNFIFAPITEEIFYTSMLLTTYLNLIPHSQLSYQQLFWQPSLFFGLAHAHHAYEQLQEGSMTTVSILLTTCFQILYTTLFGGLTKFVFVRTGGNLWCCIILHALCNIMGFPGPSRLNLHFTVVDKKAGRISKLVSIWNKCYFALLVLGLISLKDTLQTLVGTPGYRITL
It counts as biochemical.

Test [19] in a line: cells. It is filed as functional, cell-based. This is another data set of the same source.
For test [20], the target named is T3, Heat shock factor protein 1 (Mus musculus, UniProt P38532).
T3 sequence (P38532 whole entry): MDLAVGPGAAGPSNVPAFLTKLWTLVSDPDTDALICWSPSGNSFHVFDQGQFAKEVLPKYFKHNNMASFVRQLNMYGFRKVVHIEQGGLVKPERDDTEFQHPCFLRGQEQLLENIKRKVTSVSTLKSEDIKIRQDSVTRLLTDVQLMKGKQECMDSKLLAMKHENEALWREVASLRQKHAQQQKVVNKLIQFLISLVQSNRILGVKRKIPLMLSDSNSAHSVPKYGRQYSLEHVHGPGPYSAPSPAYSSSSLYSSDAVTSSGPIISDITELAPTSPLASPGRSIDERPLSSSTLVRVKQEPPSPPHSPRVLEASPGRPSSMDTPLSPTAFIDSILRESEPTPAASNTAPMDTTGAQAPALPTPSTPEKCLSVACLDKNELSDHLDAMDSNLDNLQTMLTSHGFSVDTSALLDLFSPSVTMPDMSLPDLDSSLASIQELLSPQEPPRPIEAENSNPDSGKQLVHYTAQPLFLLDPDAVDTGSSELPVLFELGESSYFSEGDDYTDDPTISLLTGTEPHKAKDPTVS
As to the kind of experiment: enhancement of HSF1-driven luciferase signal – cell-based, NIH3T3, luminescence, dose retest, confirmation (AID 435004).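 Further: stress induced by proteasome inhibitor MG132 added 30 min after compound; luciferase reporter driven by HSF1 response element in NIH3T3 cells; actives raise luminescence as potentiators of the MG132 stress response.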 It counts as functional.

Test [21] deals with Streptococcus. As to the kind of experiment: GAS UMAA2166 growth inhibition – luminescence, BacTiterGlo, counter-screen for streptokinase expression inhibitor project, dose response (AID 1915).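 Further: potency for reduction of bacterial viability or growth.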 It counts as functional, organism-based.
For test [22], the target named is T4, Streptokinase A (Streptococcus pyogenes serotype M1, UniProt P10520).
T4 sequence (P10520 whole entry): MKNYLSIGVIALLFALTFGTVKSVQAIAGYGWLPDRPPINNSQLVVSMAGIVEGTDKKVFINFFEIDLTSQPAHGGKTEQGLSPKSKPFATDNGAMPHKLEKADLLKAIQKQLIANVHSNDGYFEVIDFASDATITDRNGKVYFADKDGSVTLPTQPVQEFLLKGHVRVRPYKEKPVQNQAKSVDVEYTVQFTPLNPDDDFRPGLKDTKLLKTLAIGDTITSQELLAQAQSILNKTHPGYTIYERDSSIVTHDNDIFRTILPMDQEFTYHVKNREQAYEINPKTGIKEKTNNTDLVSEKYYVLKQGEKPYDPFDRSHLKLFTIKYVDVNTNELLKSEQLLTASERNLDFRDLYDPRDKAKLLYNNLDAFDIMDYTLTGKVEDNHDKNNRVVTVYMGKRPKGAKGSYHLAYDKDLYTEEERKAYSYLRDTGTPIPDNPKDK
Nature of the test: viability-normalized secreted streptokinase activity reduction – plasminogen activation absorbance, OD405, dose response (AID 1914).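 Further: secreted streptokinase activity via plasminogen activation per viability signal from cell pellet.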 It counts as functional, Streptococcus pyogenes M1 GAS.

The subject of test [23] is Streptococcus sp. 'group A'. As to the kind of experiment: Streptococcus pyogenes SK(-)GAS viability under kanamycin – luminescence, BacTiterGlo, confirmation, counter-screen for streptokinase expression inhibitor project, dose response (AID 1900). It is filed as functional, organism-based.
Test [24] in a line: viability of uninfected HEp-2 cells – cell-based, HTS, cytotoxicity control for RSV inhibitor project, dose response (AID 2410). It is filed as functional. The note with it: human respiratory syncytial virus.

In general, IC50 refers to the point on the concentration scale where inhibition reaches its midpoint. What is called EC50 is the concentration needed to bring the measured effect to its halfway point. What is called AC50 is the concentration at which the activity in the assay is half-maximal. Usually CC50 stands for the concentration at which the toxic effect on the cells reaches its halfway point.

Structures are written as SMILES. Calls of active or inactive are those of the source.

As to `Cc1cc(OCc2ccccc2)ccc1C(=O)C1=C(O)C(=O)N(Cc2cccnc2)C1c1ccncc1` (stereo not given), the values for the IC50 in [1] and in test [2] were 12.5 µM (inactive) and > 138 µM (inactive), respectively.

`CC(=O)c1ccc(N2CCN(C(=O)c3cc4c(C)nc5ccccc5c4o3)CC2)cc1`: the EC50 in test [3] is 30.7 µM (inactive); in test [4] it was > 99 µM (inactive).

As for `CSc1cc(-c2ccc(Cl)cc2)n(Cc2ccccc2)c(=O)c1C#N`, the results for the EC50 in [5], in test [6] and in test [7] were 44.7 µM (not active), 41.4 µM (not active) and 80.7 µM (not active), respectively.

Consider `C[C@H]1COc2c3ccc(I)cc3nn21`, for which the IC50 in test [1] was 3.61 µM (active); in test [2], > 138 µM (inactive).

For `Cc1ccc(OCC(=O)N2CCN(c3nnc(-c4ccccc4)c4ccccc34)CC2)cc1`, the EC50 is 3.8 µM (active) in test [8], > 60 µM (not active) in [9] and 1.92 µM (active) in [11]. For the same compound, the IC50 in test [10] is > 80 µM (inactive).

In the case of `CC(=O)Nc1ccc(-c2ccnc(-c3ccc(NC(C)=O)cc3)n2)cc1`, the IC50 is 26.7 µM (inactive) in test [1] and > 138 µM (inactive) in test [2].

With `Oc1nc(Nc2ccccc2)nc(N2CCCCC2)n1`, in [12], the EC50 is > 29.9 µM (inactive). For the same compound, in test [13], the IC50 is > 29.9 µM (inactive).

As to `CCc1cc2cccc(C)c2nc1SCC(=O)N1CCN(C(=O)c2ccco2)CC1`, the IC50 in test [14] is > 79 µM (inactive); in [1], 10.7 µM (inactive); in test [2], 54.9 µM (inactive).

Take `Cc1nnc(SCc2ccccc2)n1N`: the EC50 in test [5], in [6] and in test [7] was > 79.4 µM (not active) in each case.

For `COc1ccc(-c2nc3ccccc3c(=O)n2NC(=S)N(C)C)cc1`, the 50% inhibitory concentration (IC50) in [15] was 35.1 µM (active).

Regarding `CC(=O)N1CCN(c2ccc(NC(=O)/C=C/c3ccccc3)cc2)CC1`, the EC50 in [5], in test [6] and in test [7] was > 79.4 µM (not active) throughout.

In the case of `CCN(CC)C(=O)CSc1nc(O)c(Cc2ccccc2)c(=O)n1-c1ccccc1`, the IC50 in test [1] is 14.6 µM (inactive); in test [2] it was > 138 µM (inactive).

With `CCS(=O)(=O)N1CCN(C2CCC(c3ccccc3)CC2)CC1` (stereo not given), the EC50 in [5] was > 79.4 µM (not active); in [16], > 50 µM (active); in test [6], > 79.4 µM (not active); in test [7], > 79.4 µM (not active).

`O=C(Nc1cccc(-c2cn3ccccc3n2)c1)C1CC1`: the concentration giving a half-maximal response (EC50) in [17] and in test [19] was > 350 µM (not active) throughout. Further, in test [18], the AC50 was 31.9 µM (active).

For `Cc1cc(C)c(C#N)c(=N)o1`, the IC50 in test [15] was 37.4 µM (active).

Take `O=C(O)CSc1ncnc2sc3c(c12)CCCC3`: the IC50 is 8.49 µM (active) in [1] and > 138 µM (inactive) in test [2].

For the compound `COc1ccc(NC(=S)N2CCc3ccccc3C2)cc1OC`, the EC50 in test [12] was > 29.9 µM (inactive). Besides, the IC50 in test [13] was > 29.9 µM (inactive).

`Cc1cccc(N(CC(=O)N2CCN(c3ccc(F)cc3)CC2)S(C)(=O)=O)c1C`: the EC50 in test [5], in [6] and in test [7] was > 79.4 µM (not active) each time.

For `CC1C(Br)C(=O)NC(=O)N1Cc1ccccc1` (stereo not given), the EC50 in test [5], in [6] and in test [7] was > 79.4 µM (not active) throughout.

Take `CC1(C)CC(=O)C(=NNc2cc3c(cc2[N+](=O)[O-])OCCO3)C(=O)C1`: the EC50 in test [3] was 29.6 µM (inactive); in test [4] it was > 99 µM (inactive).

On to `COc1cccc(NC(=S)NC(=O)c2c(Cl)c(C)nn2C)c1`, for which the EC50 was 63.7 µM (active) in test [20], > 79.4 µM (not active) in test [5], > 79.4 µM (not active) in test [6] and > 79.4 µM (not active) in test [7].

For `COc1ccccc1N1CCN(C(=O)/C=C/c2ccc(C)cc2)CC1`, the EC50 in [21] was > 150 µM (not active); in test [22] it was 107 µM (active); in test [23], > 150 µM (not active). Moreover, the IC50 in [10] was > 80 µM (inactive).

With `COc1cccc(C(=O)Nc2nnc(SCC(=O)NC3CCCC3)s2)c1`, the AC50 in [18] was 52.3 µM (active).

`CCOC(=O)c1cc(-c2ccccc2)sc1NC(=O)C(C)Sc1nnnn1C` (stereo not given): the CC50 in [24] was > 50 µM (active). Also, the AC50 in test [18] was 7.54 µM (active).

The values are drawn from ChEMBL document CHEMBL1201862, “PubChem BioAssay data set” (2004).
